Assay results: ChEMBL document CHEMBL4819041 (J Med Chem, 2021)

Experiments:
Format in all cases: organism-based
Details in all cases: in vivo
[1] = Toxicity in Balb/c nude mouse xenografted with human MDA-MB-231 cells assessed as normal feeding at 20 mg/kg, ip QD
[2] = Toxicity in Balb/c nude mouse xenografted with human MDA-MB-231 cells assessed as change in body weight at 20 mg/kg, ip QD
[3] = Toxicity in Balb/c nude mouse xenografted with human MDA-MB-231 cells assessed as adverse effect at 20 mg/kg, ip QD
[4] = Toxicity in Balb/c nude mouse xenografted with human MDA-MB-231 cells assessed as dose toleration at 20 mg/kg, ip QD
[5] = Toxicity in Balb/c nude mouse xenografted with human MDA-MB-231 cells assessed as normal inquisitiveness at 20 mg/kg, ip QD

Measured: Activity

CNCc1ccccc1CN(CC(=O)Nc1ccc2c(c1)CC1(C2)C(=O)Nc2ncccc21)C(=O)C(C)(C)C (stereo not given)
Non-Toxic: all assays above
